Laboratory results reported in patent US9278940B2, “Cyclic amines as bromodomain inhibitors” (Zenith Epigenetics Corp., priority 2012, dated 2016).
Structures can show the parent of a compound that is named as a salt.

Key:
Brd4 bromodomain 1 = target: T1, Brd4 bromodomain 1 (Homo sapiens, UniProt O60885); experiment: Inhibition of tetra-acetylated histone H4 binding to BET bromodomain (TR-FRET); set-up: key: Active: Compounds with an IC50 value less than 30 μM were deemed to be active.; Not Active: Compounds with an IC50 value less than 30 μM were deemed to be active; conditions: Brd4 bromodomain 1, tetra-acetylated histone H4 peptide
T1 construct: made in house; host or cells: E. coli BL21(DE3)
Method: Proteins were cloned and overexpressed with a N-terminal 6×His tag, then purified by nickel affinity followed by size exclusion chromatography. Briefly, E. coli BL21(DE3) cells were transformed with a recombinant expression vector encoding N-terminally Nickel affinity tagged bromodomains from Brd2, Brd3, Brd4. Cell cultures were incubated at 37° C. with shaking to the appropriate density and induced overnight with IPTG. The supernatant of lysed cells was loaded onto Ni-IDA column for purification. Eluted protein is pooled, concentrated and further purified by size exclusion chromatography. Fractions representing monomeric protein were pooled, concentrated, aliquoted, and frozen at −80° C. for use in subsequent experiments.
Binding of tetra-acetylated histone H4 and BET bromodomains was confirmed by a Time Resolved Fluorescence Resonance Energy Transfer (TR-FRET) method. N-terminally His-tagged bromodomains (200 nM) and biotinylated tetra-acetylated histone H4 peptide (25-50 nM, Millipore) were incubated in the presence of Europium Cryptate-labeled streptavidin (Cisbio Cat. #610SAKLB) and XL665-labeled monoclonal anti-His antibody (Cisbio Cat. #61HISXLB) in a white 96 well microtiter plate (Greiner). For inhibition assays, serially diluted test compound was added to these reactions in a 0.2% final concentration of DMSO. Final buffer concentrations were 30 mM HEPES pH 7.4, 30 mM NaCl, 0.3 mM CHAPS, 20 mM phosphate pH 7.0, 320 mM KF, 0.08% BSA). After 2 hours incubation at room temperature, the fluorescence by FRET was measured at 665 and 620 nm by a SynergyH4 plate reader (Biotek). The binding inhibitory activity was shown by a decrease in 665 nm fluorescence relative to 620 nm. IC50 values were determined from a dose response curve.

c-myc = experiment: Inhibition of c-myc expression (mRNA, real-time PCR) in MV4-11 cells; format: cell-based; set-up: key: Active: Compounds with an IC50 value less than 30 μM were deemed to be active.; Not Active: Compounds with an IC50 value less than 30 μM were deemed to be active; conditions: Human AML MV4-11 cells, 3 hours
Method: MV4-11 cells (2.5×10^4 cells) were plated in 96 well U-bottom plates with test compound or DMSO (0.1%), and incubated for 3 hours at 37° C. Cells were then harvested by centrifugation, lysed, and mRNA was isolated using the mRNA catcher plus kit (Invitrogen). Reverse transcription of the mRNA and duplex amplification of the c-myc and cyclophilin cDNAs was performed using the RNA Ultrasense kit (Invitrogen) and a ViiA7 real-time PCR machine (Applied Biosystems). IC50 values were determined from a dose response curve.

Human AML MV-4-11 cells = experiment: Inhibition of cell proliferation in MV4-11 cells; format: cell-based; set-up: key: Active: Compounds with an IC50 value less than 30 μM are deemed to be active.; Not Active: Compounds with an IC50 value less than 30 μM are deemed to be active; conditions: 72 hours
Method: MV4-11 cells: 96-well plates were seeded with 5×10^4 cells per well of exponentially growing human AML MV-4-11 (CRL-9591) cells and immediately treated with two-fold dilutions of test compounds, ranging from 30 μM to 0.2 μM. Triplicate wells were used for each concentration, as well as a media only and three DMSO control wells. The cells and compounds were incubated at 37° C., 5% CO2 for 72 hours before adding 20 μL of the CellTiter Aqueous One Solution (Promega) to each well and incubating at 37° C., 5% CO2 for an additional 3-4 hours. The absorbance was taken at 490 nm in a spectrophotometer and the percentage of proliferation relative to DMSO-treated cells was calculated after correction from the blank well. IC50 were calculated using the GraphPad Prism software.

hIL-6 mRNA = experiment: Inhibition of hIL-6 mRNA transcription in LPS-stimulated U937 macrophages; format: cell-based, human; set-up: key: Active: Compounds with an IC50 value less than 30 μM are deemed to be active.; Not Active: Compounds with an IC50 value less than 30 μM are deemed to be active; conditions: U937 cells differentiated with PMA, 1 h pretreatment, LPS 3 h
Method: In this example, hIL-6 mRNA in tissue culture cells was quantitated to measure the transcriptional inhibition of hIL-6 when treated with a compound of the present disclosure.
A human leukemic monocyte lymphoma cell line (U937) was plated (3.2×10^4 cells per well) in a 96-well plate in […] RPMI-1640 containing 10% FBS and penicillin/streptomycin, and differentiated into macrophages for 3 days in 60 ng/mL PMA ([…]) at 37° C. in 5% CO2 prior to the addition of the compound of interest. The cells were pretreated for 1 h with the test compound prior to stimulation with 1 ug/mL lipopolysaccharide from Escherichia coli. The cells were incubated at 37-C for 3 h before the cells were harvested. At time of harvest, the spent media was removed from the cells and the cells were rinsed in 200 μL PBS. Cell lysis solution (70 μL) was added the cells in each well and incubated for 5-10 min at room temperature, to allow for complete cell lysis and detachment. mRNA was then prepared using the “mRNA Catcher PLUS plate” (Invitrogen), according to the protocol supplied. After the last wash, as much wash buffer as possible was aspirated without allowing the wells to dry. Elution buffer (E3, 70 μL) was then added to each well. mRNA was then eluted by incubating the mRNA Catcher PLUS plate with Elution Buffer for 5 min at 68° C. and then immediately placing the plate on ice.
The eluted mRNA isolated was then used in a one-step quantitative real-time PCR reaction, using components of the Ultra Sense Kit together with Applied Biosystems primer-probe mixes. Real-time PCR data was analyzed, normalizing the Ct values for hIL-6 to an internal control, prior to determining the fold induction of each unknown sample, relative to the control.

hApoA-1 mRNA = experiment: Up-regulation of hApoA-1 mRNA transcription in Huh7 cells; format: cell-based, human; set-up: key: Active: Compounds with an EC170 value less than 30 μM are deemed to be active.; Not Active: Compounds with an EC170 value less than 30 μM are deemed to be active; conditions: 48 hrs treatment, ApoA-I mRNA
Method: In this example, ApoA-I mRNA in tissue culture cells was quantitated to measure the transcriptional up-regulation of ApoA-I when treated with a compound of the present disclosure.
Huh7 cells ([…] per well) were plated in a 96-well plate using 100 μL DMEM per well, (Gibco DMEM supplemented with penicillin/streptomycin and 10% FBS), 24 h before the addition of the compound of interest. After 48 hrs treatment, the spent media was removed from the Huh-7 cells and placed on ice (for immediate use) or at −80° C. (for future use) with the “LDH cytotoxicity assay Kit II” from Abcam. The cells remaining in the plate were rinsed with 100 μL PBS.
Then 85 μL of cell lysis solution was added to each well and incubated for 5-10 minutes at room temperature, to allow for complete cell lysis and detachment. mRNA was then prepared using the “mRNA Catcher PLUS plate” from Life Technologies, according to the protocol supplied. After the last wash, as much wash buffer as possible was aspirated without allowing the wells to dry. Elution Buffer (E3, 80 μL) was then added to each well. mRNA was then eluted by incubating the mRNA Catcher PLUS plate with Elution Buffer for 5 minutes at 68° C., and then 1 minute at 4° C. Catcher plates with mRNA eluted were kept on ice for use or stored at −80° C.
The eluted mRNA isolated was then used in a one-step real-time PCR reaction, using components of the Ultra Sense Kit together with Life Technologies primer-probe mixes. Real-time PCR data was analyzed, using the Ct values, to determine the fold induction of each unknown sample, relative to the control (that is, relative to the control for each independent DMSO concentration).
Compounds with an EC170 value less than 30 μM are deemed to be active.

In the case of `COc1cc(OC)c2c(=O)[nH]c(-c3cccc(N4CCN(CCS(C)(=O)=O)CC4)n3)nc2c1` [Example 6, 5,7-Dimethoxy-2-(6-(4-(2-(methylsulfonyl)ethyl)piperazin-1-yl)pyridin-2-yl)quinazazolin-4(3H)-one], the “FRET activity (IC50 < 30 μM)” value (Brd4 bromodomain 1) is reported as “Active”, the “c-myc activity (IC50 < 30 μM)” value (c-myc) is reported as “Not Active” and the “cell proliferation activity (IC50 < 30 μM)” value (from here on “cell proliferation activity”) (Human AML MV-4-11 cells) is reported as “Not Active”. For the same molecule, the “IL-6 activity (IC50 < 30 μM)” value (hIL-6 mRNA) was “Active” and the “ApoA-1 activity (EC170 < 30 μM)” value (hApoA-1 mRNA) was “Active”.
In the case of `COc1cc(OC)c2c(=O)[nH]c(-c3cccc(N4CCOCC4)n3)nc2c1` [Example 16, 5,7-Dimethoxy-2-(6-morpholinopyridin-2-yl)quinazolin-4(3H)-one Hydrochloride], the “FRET activity (IC50 < 30 μM)” value (Brd4 bromodomain 1) is reported as “Active”, the “c-myc activity (IC50 < 30 μM)” value (c-myc) is reported as “Not Active” and the “cell proliferation activity” value (Human AML MV-4-11 cells) is reported as “Not Active”. For the same molecule, the “IL-6 activity (IC50 < 30 μM)” value (hIL-6 mRNA) was “Active”.
In the case of `COc1cc(OC)c2c(=O)[nH]c(-c3cccc(N4CCN(S(C)(=O)=O)CC4)n3)nc2c1` [Example 18, 5,7-Dimethoxy-2-(6-(4-(methylsulfonyl)piperazin-1-yl)pyridin-2-yl)quinazolin-4(3H)-one Hydrochloride], the “FRET activity (IC50 < 30 μM)” value (Brd4 bromodomain 1) is reported as “Not Active” and the “IL-6 activity (IC50 < 30 μM)” value (hIL-6 mRNA) is reported as “Not Active”.
With `COc1cc(OC)c2c(=O)[nH]c(-c3cc(OC(F)(F)F)cc(N4CCN(C(C)C)CC4)c3)nc2c1` [Example 20, 2-(3-(4-Isopropylpiperazin-1-yl)-5-(trifluoromethoxy)phenyl)-5,7-dimethoxyquinazolin-4(3H)-one] the “FRET activity (IC50 < 30 μM)” value (Brd4 bromodomain 1) was “Active”, the “c-myc activity (IC50 < 30 μM)” value (c-myc) was “Not Active” and the “cell proliferation activity” value (Human AML MV-4-11 cells) was “Not Active”. For the same molecule, the “IL-6 activity (IC50 < 30 μM)” value (hIL-6 mRNA) was “Active”.
`COc1cc(F)cc2nc(-c3cccc(N4CCN(C(C)C)CC4)n3)[nH]c(=O)c12` [Example 21, 7-Fluoro-2-(6-(4-isopropylpiperazin-1-yl)pyridin-2-yl)-5-methoxyquinazolin-4(3H)-one Hydrochloride] was tested, and the “FRET activity (IC50 < 30 μM)” value (Brd4 bromodomain 1) was “Active”, the “c-myc activity (IC50 < 30 μM)” value (c-myc) was “Active” and the “cell proliferation activity” value (Human AML MV-4-11 cells) was “Active”. For the same molecule, the “IL-6 activity (IC50 < 30 μM)” value (hIL-6 mRNA) was “Active”.
For `COc1cc(OCc2ccccc2)cc2nc(-c3cccc(N4CCN(C(C)C)CC4)n3)[nH]c(=O)c12` [Example 22, 7-(Benzyloxy)-2-(6-(4-isopropylpiperazin-1-yl)pyridin-2-yl)-5-methoxyquinazolin-4(3H)-one Hydrochloride], the “FRET activity (IC50 < 30 μM)” value (Brd4 bromodomain 1) was “Active”, the “c-myc activity (IC50 < 30 μM)” value (c-myc) was “Active” and the “cell proliferation activity” value (Human AML MV-4-11 cells) was “Active”. For the same molecule, the “IL-6 activity (IC50 < 30 μM)” value (hIL-6 mRNA) was “Active”.
In the case of `COc1cc(N2CCN(C(C)C)CC2)cc2nc(-c3cccc(N4CCN(C(C)C)CC4)n3)[nH]c(=O)c12` [Example 23, 7-(4-Isopropylpiperazin-1-yl)-2-(6-(4-isopropylpiperazin-1-yl)pyridin-2-yl)-5-methoxyquinazolin-4(3H)-one Hydrochloride], the “FRET activity (IC50 < 30 μM)” value (Brd4 bromodomain 1) is reported as “Active”, the “c-myc activity (IC50 < 30 μM)” value (c-myc) is reported as “Active” and the “cell proliferation activity” value (Human AML MV-4-11 cells) is reported as “Active”. For the same molecule, the “IL-6 activity (IC50 < 30 μM)” value (hIL-6 mRNA) was “Not Active”.
In the case of `COc1cc(-c2ccccc2)cc2nc(-c3cccc(N4CCN(C(C)C)CC4)n3)[nH]c(=O)c12` [Example 25, 2-(6-(4-Isopropylpiperazin-1-yl)pyridin-2-yl)-5-methoxy-7-phenylquinazolin-4(3H)-one], the “FRET activity (IC50 < 30 μM)” value (Brd4 bromodomain 1) is reported as “Active” and the “IL-6 activity (IC50 < 30 μM)” value (hIL-6 mRNA) is reported as “Not Active”.
With `COc1ccc(OCc2ccccc2)c2nc(-c3cccc(N4CCN(C(C)C)CC4)c3)[nH]c(=O)c12` [Example 26, 8-(Benzyloxy)-2-(3-(4-isopropylpiperazin-1-yl)phenyl)-5-methoxyquinazolin-4(3H)-one] the “FRET activity (IC50 < 30 μM)” value (Brd4 bromodomain 1) was “Active”, the “c-myc activity (IC50 < 30 μM)” value (c-myc) was “Not Active” and the “cell proliferation activity” value (Human AML MV-4-11 cells) was “Not Active”. The “IL-6 activity (IC50 < 30 μM)” value (hIL-6 mRNA) was “Not Active”.
For `COc1cc(OC)c2c(=O)[nH]c(-c3cccc(N4CCN(C(=O)NC(C)C)CC4)n3)nc2c1` [Example 27, 4-(6-(5,7-Dimethoxy-4-oxo-3,4-dihydroquinazolin-2-yl)pyridin-2-yl)-N-isopropylpiperazine-1-carboxamide Hydrochloride], the “FRET activity (IC50 < 30 μM)” value (Brd4 bromodomain 1) was “Active”, the “c-myc activity (IC50 < 30 μM)” value (c-myc) was “Active” and the “cell proliferation activity” value (Human AML MV-4-11 cells) was “Active”. The “IL-6 activity (IC50 < 30 μM)” value (hIL-6 mRNA) was “Active”.
In the case of `COc1cc(OC)c2c(=O)[nH]c(-c3cccc(N4CCN(C(C)C)CC4=O)n3)nc2c1` [Example 28, 2-(6-(4-Isopropyl-2-oxopiperazin-1-yl)pyridin-2-yl)-5,7-dimethoxyquinazolin-4(3H)-one Hydrochloride], the “FRET activity (IC50 < 30 μM)” value (Brd4 bromodomain 1) is reported as “Not Active” and the “ApoA-1 activity (EC170 < 30 μM)” value (hApoA-1 mRNA) is reported as “Not Active”.
For `COc1cc(OC)c2c(=O)[nH]c(-c3cccc(N4CCN(C)C(=O)C4)n3)nc2c1` [Example 30, 5,7-Dimethoxy-2-(6-(4-methyl-3-oxopiperazin-1-yl)pyridin-2-yl)quinazolin-4(3H)-one], the “FRET activity (IC50 < 30 μM)” value (Brd4 bromodomain 1) was “Not Active”, the “c-myc activity (IC50 < 30 μM)” value (c-myc) was “Not Active” and the “cell proliferation activity” value (Human AML MV-4-11 cells) was “Not Active”. The “IL-6 activity (IC50 < 30 μM)” value (hIL-6 mRNA) was “Active”.
